For 13 compounds, CC50 and inhibition results are on record in patent US9873680B2 (Gilead Sciences, Inc., priority 2014, dated 2018).

Data set [1] in a line: Test B: Cytotoxicity Assay. Type of data set: cell-based. As to conditions: human, uninfected MT-4 cells, CellTiter-Glo. How it is done: Test B: Cytotoxicity Assay Compound cytotoxicity and the corresponding CC50 values was determined using the same protocol as described in the antiviral assay (Test A) except that uninfected cells were used.
Another data set deals with HIV-IIIb. Kind of data set: Test A: Antiviral Assay in MT4 Cells. Type of data set: cell-based, HIV-1. The note with it: Human immunodeficiency virus 1, MT4, 120 h; 0.2 μM drug concentration; MT-4 cells infected with HIV-IIIb, 5 days; values normalized to 100%; average over time; read-out: % inhibition at 0.2 μM (percent inhibition of virus-induced cell killing). A digest of the protocol: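 MT-4 cells were preinfected with HIV-IIIb […]. Cell viability, as protection from viral cytopathic effect, was read by CellTiter-Glo chemiluminescence.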

The structures appear in SMILES notation.

In general, CC50 refers to the concentration giving 50% cytotoxicity. What is called inhibition is how much of the control response was suppressed.

`Cn1nc(NS(C)(=O)=O)c2cccc(-c3ccc(C#CC4(O)CCCC4)nc3[C@H](Cc3cc(F)cc(F)c3)NC(=O)Cn3nc(C(F)(F)F)c4c3C(F)(F)[C@@H]3C[C@H]43)c21` [Compound 37, 2-((3bS,4aR)-5,5-difluoro-3-(trifluoromethyl)-3b,4,4a,5-tetrahydro-1H-cyclopropa[3,4]cyclopenta[1,2-c]pyrazol-1-yl)-N—((S)-2-(3,5-difluorophenyl)-1-(6-((1-hydroxycyclopentyl)ethynyl)-3-(1-methyl-3-(methylsulfonamido)-1H-indazol-7-yl)pyridin-2-yl)ethyl)acetamide] came in with a CC50 at 5 days in data set [1] of 8.71 µM. Moreover, the inhibition at 0.2 µM in the data set on HIV-IIIb came to 80%.

Turning to `Cn1nc(NS(C)(=O)=O)c2c(Cl)ccc(-c3ccc(C#CC4(O)COC4)nc3[C@H](Cc3cc(F)cc(F)c3)NC(=O)Cn3nc(C(F)(F)F)c4c3C(F)(F)[C@@H]3C[C@H]43)c21` [Compound 38, N—((S)-1-(3-(4-chloro-1-methyl-3-(methylsulfonamido)-1H-indazol-7-yl)-6-((3-hydroxyoxetan-3-yl)ethynyl)pyridin-2-yl)-2-(3,5-difluorophenyl)ethyl)-2-((3bS,4aR)-5,5-difluoro-3-(trifluoromethyl)-3b,4,4a,5-tetrahydro-1H-cyclopropa[3,4]cyclopenta[1,2-c]pyrazol-1-yl)acetamide], the cytotoxic concentration (CC50) at 5 days in data set [1] was 14.3 µM. For the same compound, the inhibition at 0.2 µM in the data set on HIV-IIIb was 97%.

Compound `Cn1nc(NS(C)(=O)=O)c2c(Cl)ccc(-c3ccc(C#CC4(O)CCOCC4)nc3[C@H](Cc3cc(F)cc(F)c3)NC(=O)Cn3nc(C(F)(F)F)c4c3C(F)(F)[C@@H]3C[C@H]43)c21` [Compound 39, N—((S)-1-(3-(4-chloro-1-methyl-3-(methylsulfonamido)-1H-indazol-7-yl)-6-((4-hydroxytetrahydro-2H-pyran-4-yl)ethynyl)pyridin-2-yl)-2-(3,5-difluorophenyl)ethyl)-2-((3bS,4aR)-5,5-difluoro-3-(trifluoromethyl)-3b,4,4a,5-tetrahydro-1H-cyclopropa[3,4]cyclopenta[1,2-c]pyrazol-1-yl)acetamide] showed a cytotoxic concentration (CC50) at 5 days in data set [1] of 10.7 µM. In addition, the inhibition at 0.2 µM in the data set on HIV-IIIb was 95%.

Regarding `Cn1nc(NS(C)(=O)=O)c2c(Cl)ccc(-c3ccc(C#CC4(O)CCOCC4)nc3[C@H](Cc3cc(F)cc(F)c3)NC(=O)Cn3nc(C(F)F)c4c3C(F)(F)[C@@H]3C[C@H]43)c21` [Compound 40, N—((S)-1-(3-(4-chloro-1-methyl-3-(methylsulfonamido)-1H-indazol-7-yl)-6-((4-hydroxytetrahydro-2H-pyran-4-yl)ethynyl)pyridin-2-yl)-2-(3,5-difluorophenyl)ethyl)-2-((3bS,4aR)-3-(difluoromethyl)-5,5-difluoro-3b,4,4a,5-tetrahydro-1H-cyclopropa[3,4]cyclopenta[1,2-c]pyrazol-1-yl)acetamide], the midpoint of cytotoxicity in data set [1], the CC50 at 5 days, lay at 17 µM. Besides, in the data set on HIV-IIIb, the inhibition at 0.2 µM was 96%.

In data set [1], `CN1CCN(C(C)(C)C#Cc2ccc(-c3ccc(Cl)c4c(NS(C)(=O)=O)nn(C)c34)c([C@H](Cc3cc(F)cc(F)c3)NC(=O)Cn3nc(C(F)(F)F)c4c3C(F)(F)[C@@H]3C[C@H]43)n2)CC1` [Compound 41, N—((S)-1-(3-(4-chloro-1-methyl-3-(methylsulfonamido)-1H-indazol-7-yl)-6-(3-methyl-3-(4-methylpiperazin-1-yl)but-1-yn-1-yl)pyridin-2-yl)-2-(3,5-difluorophenyl)ethyl)-2-((3bS,4aR)-5,5-difluoro-3-(trifluoromethyl)-3b,4,4a,5-tetrahydro-1H-cyclopropa[3,4]cyclopenta[1,2-c]pyrazol-1-yl)acetamide] returned a cytotoxic concentration (CC50) at 5 days of 2.08 µM. Also, the inhibition at 0.2 µM in the data set with HIV-IIIb was 98%.

As for `CN1CC(NC(C)(C)C#Cc2ccc(-c3ccc(Cl)c4c(NS(C)(=O)=O)nn(C)c34)c([C@H](Cc3cc(F)cc(F)c3)NC(=O)Cn3nc(C(F)(F)F)c4c3C(F)(F)[C@@H]3C[C@H]43)n2)C1` [Compound 42, N—((S)-1-(3-(4-chloro-1-methyl-3-(methylsulfonamido)-1H-indazol-7-yl)-6-(3-methyl-3-((1-methylazetidin-3-yl)amino)but-1-yn-1-yl)pyridin-2-yl)-2-(3,5-difluorophenyl)ethyl)-2-((3bS,4aR)-5,5-difluoro-3-(trifluoromethyl)-3b,4,4a,5-tetrahydro-1H-cyclopropa[3,4]cyclopenta[1,2-c]pyrazol-1-yl)acetamide], the CC50 at 5 days in data set [1] worked out at 2.77 µM. For the same compound, in the data set on HIV-IIIb, the inhibition at 0.2 µM is 90%.

As to `Cn1nc(NS(C)(=O)=O)c2c(Cl)ccc(-c3ccc(C#CC4CCCN4)nc3[C@H](Cc3cc(F)cc(F)c3)NC(=O)Cn3nc(C(F)(F)F)c4c3C(F)(F)[C@@H]3C[C@H]43)c21` (stereo partly drawn) [Compound 43H, N-((1S)-1-(3-(4-chloro-1-methyl-3-(methylsulfonamido)-1H-indazol-7-yl)-6-(pyrrolidin-2-ylethynyl)pyridin-2-yl)-2-(3,5-difluorophenyl)ethyl)-2-((3bS,4aR)-5,5-difluoro-3-(trifluoromethyl)-3b,4,4a,5-tetrahydro-1H-cyclopropa[3,4]cyclopenta[1,2-c]pyrazol-1-yl)acetamide], the 50% cytotoxic concentration (CC50) at 5 days in data set [1] worked out at 4.34 µM. Further, the inhibition at 0.2 µM in the data set with HIV-IIIb is 99%.

Compound `Cn1nc(NS(C)(=O)=O)c2c(Cl)ccc(-c3ccc(C#CC4CCNC4)nc3[C@H](Cc3cc(F)cc(F)c3)NC(=O)Cn3nc(C(F)(F)F)c4c3C(F)(F)[C@@H]3C[C@H]43)c21` (stereo partly drawn) [Compound 44, N-((1S)-1-(3-(4-chloro-1-methyl-3-(methylsulfonamido)-1H-indazol-7-yl)-6-(pyrrolidin-3-ylethynyl)pyridin-2-yl)-2-(3,5-difluorophenyl)ethyl)-2-((3bS,4aR)-5,5-difluoro-3-(trifluoromethyl)-3b,4,4a,5-tetrahydro-1H-cyclopropa[3,4]cyclopenta[1,2-c]pyrazol-1-yl)acetamide] came in with a CC50 at 5 days in data set [1] of 5.64 µM. For the same compound, the inhibition at 0.2 µM in the data set with HIV-IIIb is 100%.

`Cn1nc(NS(C)(=O)=O)c2c(Cl)ccc(-c3ccc(C#CC4(CO)CCCC4)nc3[C@H](Cc3cc(F)cc(F)c3)NC(=O)Cn3nc(C(F)(F)F)c4c3C(F)(F)[C@@H]3C[C@H]43)c21` [Compound 45B, N—((S)-1-(3-(4-chloro-1-methyl-3-(methylsulfonamido)-1H-indazol-7-yl)-6-((1-(hydroxymethyl)cyclopentyl)ethynyl)pyridin-2-yl)-2-(3,5-difluorophenyl)ethyl)-2-((3bS,4aR)-5,5-difluoro-3-(trifluoromethyl)-3b,4,4a,5-tetrahydro-1H-cyclopropa[3,4]cyclopenta[1,2-c]pyrazol-1-yl)acetamide] returned a CC50 at 5 days in data set [1] of 7.35 µM. In addition, in the data set on HIV-IIIb, the inhibition at 0.2 µM was 93%.

Consider `Cn1nc(NS(C)(=O)=O)c2c(Cl)ccc(-c3ccc(C#CC4(O)CCOC4)nc3[C@H](Cc3cc(F)cc(F)c3)NC(=O)Cn3nc(C(F)(F)F)c4c3C(F)(F)[C@@H]3C[C@H]43)c21` (stereo partly drawn) [Compound 46, N-((1S)-1-(3-(4-chloro-1-methyl-3-(methylsulfonamido)-1H-indazol-7-yl)-6-((3-hydroxytetrahydrofuran-3-yl)ethynyl)pyridin-2-yl)-2-(3,5-difluorophenyl)ethyl)-2-((3bS,4aR)-5,5-difluoro-3-(trifluoromethyl)-3b,4,4a,5-tetrahydro-1H-cyclopropa[3,4]cyclopenta[1,2-c]pyrazol-1-yl)acetamide], for which half-maximal cytotoxicity in data set [1] (CC50 at 5 days) was put at 17.6 µM. Also, the inhibition at 0.2 µM in the data set with HIV-IIIb turned out to be 96%.

`CN1CCN(CC#Cc2ccc(-c3ccc(Cl)c4c(NS(C)(=O)=O)nn(C)c34)c([C@H](Cc3cc(F)cc(F)c3)NC(=O)Cn3nc(C(F)(F)F)c4c3C(F)(F)[C@@H]3C[C@H]43)n2)CC1` [Compound 47, N—((S)-1-(3-(4-chloro-1-methyl-3-(methylsulfonamido)-1H-indazol-7-yl)-6-(3-(4-methylpiperazin-1-yl)prop-1-yn-1-yl)pyridin-2-yl)-2-(3,5-difluorophenyl)ethyl)-2-((3bS,4aR)-5,5-difluoro-3-(trifluoromethyl)-3b,4,4a,5-tetrahydro-1H-cyclopropa[3,4]cyclopenta[1,2-c]pyrazol-1-yl)acetamide] came in with a half-maximal cytotoxic concentration (CC50) at 5 days in data set [1] of 7.97 µM. The inhibition at 0.2 µM in the data set with HIV-IIIb came out at 94%.

Compound `CC1CC(O)(C#Cc2ccc(-c3ccc(Cl)c4c(NS(C)(=O)=O)nn(C)c34)c([C@H](Cc3cc(F)cc(F)c3)NC(=O)Cn3nc(C(F)(F)F)c4c3C(F)(F)[C@@H]3C[C@H]43)n2)CC(C)O1` (stereo partly drawn) [Compound 48C, N-((1S)-1-(3-(4-chloro-1-methyl-3-(methylsulfonamido)-1H-indazol-7-yl)-6-((4-hydroxy-2,6-dimethyltetrahydro-2H-pyran-4-yl)ethynyl)pyridin-2-yl)-2-(3,5-difluorophenyl)ethyl)-2-((3bS,4aR)-5,5-difluoro-3-(trifluoromethyl)-3b,4,4a,5-tetrahydro-1H-cyclopropa[3,4]cyclopenta[1,2-c]pyrazol-1-yl)acetamide] yielded a cytotoxic concentration (CC50) at 5 days in data set [1] of 7.27 µM. The inhibition at 0.2 µM with HIV-IIIb amounted to 92%.

Compound `Cn1nc(NS(C)(=O)=O)c2c(Cl)ccc(-c3ccc(C#CC4COCCN4)nc3[C@H](Cc3cc(F)cc(F)c3)NC(=O)Cn3nc(C(F)(F)F)c4c3C(F)(F)[C@@H]3C[C@H]43)c21` (stereo partly drawn) [Compound 49, N-((1S)-1-(3-(4-chloro-1-methyl-3-(methylsulfonamido)-1H-indazol-7-yl)-6-(morpholin-3-ylethynyl)pyridin-2-yl)-2-(3,5-difluorophenyl)ethyl)-2-((3bS,4aR)-5,5-difluoro-3-(trifluoromethyl)-3b,4,4a,5-tetrahydro-1 I-cyclopropa[3,4]cyclopenta[1,2-c]pyrazol-1-yl)acetamide] showed a cytotoxic concentration (CC50) at 5 days in data set [1] of 20.6 µM. The inhibition at 0.2 µM in the data set on HIV-IIIb is 92%.
